11 molecules from patent US10544099B2, “Inhibitors of indoleamine 2,3-dioxygenase and methods of their use” (BRISTOL-MYERS SQUIBB COMPANY, priority 2016, dated 2020) can be followed below.

Bounds are passed on as bounds.

T1 sequence (P14902 whole entry): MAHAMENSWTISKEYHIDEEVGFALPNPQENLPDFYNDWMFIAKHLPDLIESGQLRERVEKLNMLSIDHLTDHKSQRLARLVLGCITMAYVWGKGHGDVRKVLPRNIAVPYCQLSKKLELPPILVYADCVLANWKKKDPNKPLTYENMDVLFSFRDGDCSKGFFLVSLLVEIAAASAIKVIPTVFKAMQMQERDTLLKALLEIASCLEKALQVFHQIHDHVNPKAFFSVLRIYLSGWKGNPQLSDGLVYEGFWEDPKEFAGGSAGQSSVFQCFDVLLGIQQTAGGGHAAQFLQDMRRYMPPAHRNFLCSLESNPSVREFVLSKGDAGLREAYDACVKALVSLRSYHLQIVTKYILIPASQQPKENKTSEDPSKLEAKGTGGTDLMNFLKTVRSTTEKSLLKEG

The test has as its target T1, human IDO1 (Homo sapiens, UniProt P14902).
T1 construct: expressed in transfected cells
Description: HEK Human IDO-1 cell-based IDO inhibition assay. The settings on record: human IDO1/HEK293 cells, 20 hours incubation, kynurenine absorbance at 490 nm; read-out: HEK Human IDO-1 Bio Activity. On the procedure: HEK293 cells were transfected with a pCDNA-based mammalian expression vector harboring human IDO1 cDNA (NM 002164.2) by electroporation. They were cultured in medium (DMEM with 10% FBS) containing 1 mg/ml G418 for two weeks. Clones of HEK293 cells that stably expressed human IDO1 protein were selected and expanded for IDO inhibition assay.
The human IDO1/HEK293 cells were seeded at 10,000 cells per 50 μL per well with RPMI/phenol red free media contains 10% FBS in a 384-well black wall clear bottom tissue culture plate (Matrix Technologies LLC) 100 nL of certain concentration of compound was then added to each well using ECHO liquid handling systems. The cells were incubated for 20 hours in 37° C. incubator with 5% CO2.
The compound treatments were stopped by adding trichloroacetic acid (Sigma-Aldrich) to a final concentration at 0.2%. The cell plate was further incubated at 50° C. for 30 minute. The equal volume supernatant (20 μL) and 0.2% (w/v) Ehrlich reagent (4-dimethylaminobenzaldehyde, Sigma-Aldrich) in glacial acetic acid were mixed in a new clear bottom 384-well plate. This plate was then incubated at room temperature for 30 minute. The absorbance at 490 nm was measured on Envision plate reader.
Compound IC50 values were calculated using the counts of 500 nM of a reference standard treatment as one hundred percent inhibition, and counts of no compound but DMSO treatment as zero percent inhibition.
In the case of `CC(NC(=O)Nc1ccc(Cl)cc1)C1CCN(c2ccnc3ccc(F)cc23)CC1` (racemic) [Example 1, (±)-1-(4-Chlorophenyl)-3-(1-(1-(6-fluoroquinolin-4-yl)piperidin-4-yl)ethyl)urea], the IC50 was under 2000 nM.

As for `O=C(Nc1ccc(Cl)cc1)NC1CC12CCC(c1ccnc3ccc(F)cc13)CC2` (racemic) [Example 2, (±)-1-(4-chlorophenyl)-3-(6-(6-fluoroquinolin-4-yl)spiro [2.5]octan-1-yl)urea], the IC50 is under 2000 nM.

In the case of `CC[C@@H](NC(=O)Nc1ccc(Cl)cc1)[C@H]1CC[C@H](Oc2ccnc3ccccc23)CC1` (racemic) [Example 3, (±)-1-(4-chlorophenyl)-3-((R)-1-((trans)-4-(quinolin-4-yloxy)cyclohexyl)propyl)urea], the IC50 is under 50 nM.

As for `Cc1ccc(NC(=O)N[C@H](C)[C@H]2CC[C@@H](c3ccnc4ccc(F)cc43)CC2)cc1` [Example 4, 1-((R)-1-((1s,4s)-4-(6-Fluoroquinolin-4-yl)cyclohexyl)ethyl)-3-p-tolylurea], the IC50 is under 50 nM.

Regarding `C[C@@H](NC(=O)Nc1ccc(Cl)cc1)[C@H]1CC[C@@H](c2ccnc3ccc(F)cc32)CC1` [Example 5, 1-(4-chlorophenyl)-3-((R)-1-((1s,4S)-4-(6-fluoroquinolin-4-yl)cyclohexyl)ethyl)urea], the IC50 is under 50 nM.

Consider `CCOc1ccc(NC(=O)N[C@H](C)[C@H]2CC[C@@H](c3ccnc4ccc(F)cc43)CC2)cc1` [Example 6, 1-(4-ethoxyphenyl)-3-((R)-1-((1s,4S)-4-(6-fluoroquinolin-4-yl)cyclohexyl)ethyl)urea], for which the IC50 is under 50 nM.

On to `Cc1ccc(NC(=O)N[C@H](C)[C@H]2CC[C@@H](c3ccnc4ccc(F)cc43)CC2)cc1Cl` [Example 7, 1-(3-chloro-4-methylphenyl)-3-((R)-1-((1s,4S)-4-(6-fluoroquinolin-4-yl)cyclohexyl)ethyl)urea], for which the IC50 was under 50 nM.

Regarding `C[C@@H](NC(=O)Nc1ccc(F)cc1)[C@H]1CC[C@@H](c2ccnc3ccc(F)cc32)CC1` [Example 8, 1-(4-fluorophenyl)-3-((R)-1-((1s,4S)-4-(6-fluoroquinolin-4-yl)cyclohexyl)ethyl)urea], the IC50 is under 50 nM.

Turning to `Cc1ccc(OC(=O)N[C@H](C)[C@H]2CC[C@@H](c3ccnc4ccc(F)cc43)CC2)cc1` [Example 9], the IC50 was under 250 nM.

As for `C[C@@H](NC(=O)Oc1ccc(F)cc1)[C@H]1CC[C@@H](c2ccnc3ccc(F)cc32)CC1` [Example 10, 4-fluorophenyl (R)-1-((1s,4S)-4-(6-fluoroquinolin-4-yl)cyclohexyl)ethylcarbamate], the IC50 was under 250 nM.

Turning to `COc1ccc(OC(=O)N[C@H](C)[C@H]2CC[C@@H](c3ccnc4ccc(F)cc43)CC2)cc1` [Example 11, 4-methoxyphenyl (R)-1-((1s,4S)-4-(6-fluoroquinolin-4-yl)cyclohexyl)ethylcarbamate], the IC50 was under 50 nM.
